# Measurements: patent US20190314345A1, “CALCINEURIN INHIBITOR AND NON-STEROIDAL ANTI-INFLAMMATORY DRUG TO REDUCE RISK OF POST-IMAGING PANCREATITIS” (UNIVERSITY OF PITTSBURGH - OF THE COMMONWEALTH SYSTEM OF …, priority 2016, published 2019)
# Legend:
# PEP model in mice = assay: Intra-ductal RC infusion PEP model in mice: histological severity, serum amylase; assay type: in vivo, mouse
# Text: The procedure for retrograde infusion into the CBD and pancreatic duct has been described before^14. Briefly, Swiss Webster mice were anesthetized with isoflurane. A midline incision was made to reveal the abdominal cavity. The duodenum was flipped to reveal its distal side and held in place by ligatures. […] needle was inserted through the anti-mesenteric aspect of the duodenum to cannulate the CBD. A small bull dog clamp was applied to the distal CBD (near the duodenum) to prevent back flow of the infusate into the duodenal lumen and to hold the cannula in place. A larger bull dog clamp was applied to the proximal CBD (near the liver) to prevent infusion into the liver and thus to direct flow to the pancreatic duct. Total volumes of 50-100 μl of iohexol, iopamidol, or normal saline (NS) were infused at 10-20 μl per min for 5 min using a P33 perfusion pump (Harvard Apparatus, Holliston, Mass.). Upon completion of the infusion, the bull dog clamps were released. The exterior abdominal wound was closed using 7 mm wound clips, and a single injection of buprenorphine (0.075 mg/kg) was given immediately after the surgery. Mice recovered on a heating pad for 30 min after the procedure. They were given free access to food and water after the surgery. The pancreas, duodenum, and spleen were fixed at room temperature for 24 hr in 4% paraformaldehyde. Paraffin-embedded sections were stained with hematoxylin an eosin (HE) and graded using a 20× objective over 10 separate fields in a blinded fashion. Pancreas tissue was graded for edema, inflammatory infiltrate, and necrosis as described by Wildi et al.^67. Whole blood samples were centrifuged at 1500×g for 5 min at 4° C. Serum amylase was measured using a Phadebas kit (Amersham Pharmacia, Rochester N.Y.) as previously described^68.
# [1] = Dissolution in ready-to-use iohexol formulation; assay type: physicochemical; conditions: FK506 1 μM, CsA 10 μM
# NF-κB = assay: NF-κB-luciferase activity assay in AR42J cells; assay type: cell-based; conditions: FK506 24 μM, CsA 16 μM; P<0.05
# Description: AR42J cells were differentiated towards an acinar phenotype by administering dexamethasone (100 nM) for 48-72 hr^17. AR42J cells were infected with Ad-NF-κB luciferase 16 h prior to stimulation using a previously described method^12. Following a wash with DMEM/F12 medium, acinar cells were evenly distributed in a 48-well plate and incubated for 30 min at 37° C. They were incubated with RC at varying concentrations and times. NF-κB-luciferase was measured using a commercially available luciferase assay (Promega, Madison, Wis.). Briefly, cells were spun at 1,000 rpm for 5 min, washed with PBS, and lysed using reporter lysis 5× buffer (Promega, catalog no. E397A). Samples were vortexed and spun at 12,000×g for 2 min. The supernatant was plated, and luminescence was measured using a Synergy H1 plate reader (BioTek, Winooski, Vt.) and normalized to […].
# [2] = system: IL-6, GADD45B, IL-1β expression; assay: Real-time PCR gene expression from the pancreatic head; assay type: in vivo, mouse; conditions: RC exposure, with or without FK506 pretreatment
# Description: Total RNA from the pancreatic head was obtained by homogenizing 40 mg of tissue in 2 ml of TRIzol reagent (Life Technologies; Grand Island N.Y.) at 4° C. and immediately flash frozen in liquid nitrogen. Samples were thawed on ice and centrifuged at 12,000×g for 10 min at 4° C. The supernatant was diluted with 200 μl of chloroform and centrifuged at 12,000×g for 15 min at 4° C. The upper aqueous phase was treated with 0.5 ml of isopropanol and centrifuged at 10,000×g for 10 min at 4° C. The pellet was resuspended with 150 μl of 75% ethanol and centrifuged at 7500×g for 5 min at 4° C. The pellet was air-dried and dissolved in 100 μl of nuclease-free water. Total RNA samples were used to generate cDNA using the iScript Advanced cDNA synthesis Kit (Bio Rad; Hercules, Calif.).
# Quantitative real-time PCR (rtPCR) was performed to determine the relative expression of the cytokines IL-6 and IL-1β as well as the cell growth arrest and DNA-damage inducible gene GADD45B. The primer pairs for each as well as a GAPDH control were obtained as part of the PrimePCR-PreAMP SYBR Green Assay (Bio Rad; unique assay ID # qMmuCEP0054186, qMmuCID0005641, qMmuCEP0039581). rtPCR reactions were carried out in 20 μl volume reactions using the SsoAdvanced Universal Supermix SYBR Green system (Bio Rad). The reactions contained 1× SsoAdvanced Universal SYBR Green Supermix, 300 nM forward Primer, 300 nM reverse primer and 100 ng cDNA. rtPCR conditions were 95° C. for 10 sec and 60° C. for 30 sec for 35 cycles on a Bio Rad CFX96 Touch thermocycler (Bio Rad). Results for the expression of mRNA were normalized to expression of […] and are represented relative to expression levels for each of the control groups.
# pancreatic NF-κB = assay: Imaging pancreatic NF-κB bioluminescence in vivo; design: species or system mouse; conditions: FK506 treatment
# Description: An AAV6-NF-κB-luciferase reporter was constructed, expanded in HEK293 cells, and purified as previously described^18-20, 39. A volume of 100 μl of virus (10^12 GCP/ml) was infused into the pancreaticobiliary duct at a rate of 10 μl/min using the same technique of RC infusion described above and recently published^21, 39. After a 5-week recovery from the surgery, mice underwent PEP induction with or without FK506 treatment. At varying time points after the surgery, ranging from 2 to 36 hr, bioluminescence signals were obtained by first giving a subcutaneous injection of luciferin (150 μg/g body weight) in the scruff of the neck 15 min before the start of imaging. The mice were briefly anesthetized with isoflurane and placed in the supine position in a bioluminescent imaging chamber (IVIS spectrum imager; Perkin Elmer, Waltham, Mass.) for 3-10 min. Average pixel intensity was measured from a pancreatic region of interest (in the upper abdomen). Raw time points from each mouse were normalized to its individual baseline intensity at time zero.
# AR42J cells = assay: Cell necrosis assay in AR42J cells; assay type: cell-based; conditions: FK506 24 μM, CsA 16 μM
# Description: (§1) Acinar cells were incubated in a 48-well plate with 50 μg/ml of propidium iodide (PI) for 30 min prior to addition of RC. Fluorescence was measured at 536 nm excitation and 617 nm emission wavelengths over time a time course of up to 6 hr. Fluorescence was measured after cell lysis with 0.5% Triton-X 100 was used to normalize the results relative to total DNA.
# primary acinar cells = assay: Cell necrosis assay (propidium iodide uptake) in primary acinar cells; assay type: cell-based, mouse; conditions: 6 hr incubation; U73122 5 μM, 2-APB 100 μM, BAPTA 64 μM, IKK-2 20 μM, FK506 24 μM, CsA 16 μM
# Description: as §1
smiles,measurement,setting,value
"C=CC[C@@H]1/C=C(\C)C[C@H](C)C[C@H](OC)[C@H]2O[C@@](O)(C(=O)C(=O)N3CCCC[C@H]3C(=O)O[C@H](/C(C)=C/[C@@H]3CC[C@@H](O)[C@H](OC)C3)[C@H](C)[C@@H](O)CC1=O)[C@H](C)C[C@@H]2OC [FK506, tacrolimus]",effect when given after PEP induction,PEP model in mice; FK506 1 mg/kg after the infusion of RC,reduces pancreatic inflammation
same,serum amylase,"PEP model in mice; FK506 1 mg/kg intraperitoneal 1 hr prior and 2.5, 5.5, 12 hr after RC infusion",reduced down to the level of the NS sham condition
same,histological severity of the pancreas following pancreatitis,"PEP model in mice; FK506 1 mg/kg intraperitoneal 1 hr prior and 2.5, 5.5, 12 hr after RC infusion, 24 hr",prevented
same,effect of FK506 compared with therapeutic indomethacin on RC-induced pancreatitis,"PEP model in mice; FK506 1 mg/kg, indomethacin 7 mg/kg IP after RC infusion",as robust
same,dissolution in the ready-to-use iohexol formulation,[1],easily dissolved
same,reduction of RC-induced NF-κB,NF-κB,73%
same,gene expression of GADD45B,[2],significant reduction
same,gene expression of IL-1β,[2],trend toward reduction
same,gene expression of IL-6,[2],significant reduction
same,effect on RC-induced pancreatic NF-κB,pancreatic NF-κB,markedly blunted
same,effect on RC (12%)-induced acinar cell necrosis,AR42J cells,prevented
same,effect on RC (12%)-induced acinar cell injury (PI uptake),primary acinar cells,prevented
